One test has as its target T1, PKC β II (Homo sapiens, UniProt P05771).
T1 construct: purchased CALBIOCHEM
Nature of the test: PKC enzyme assay (BIOTRAK Protein kinase C enzyme assay system, 32P-ATP phosphorylation of peptide […]). The class given is biochemical. To be noted: for Ratio α/β: IC50 PKC α / IC50 PKC β II.

The next test deals with T2, PKC α (Homo sapiens, UniProt P17252).
T2 construct: purchased CALBIOCHEM
Described as above. In kind it is biochemical. The procedure, abridged: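 Recombinant human PKC (400 ng/ml solution) phosphorylated the supplied peptide with [γ-32P]ATP in calcium, phosphatidylserine/PMA, DTT and Mg-ATP buffer, 15 min at 37°C. Compounds were tested at 1 nM-10 µM final. Phosphocellulose-bound radioactivity relative to DMSO gave inhibition, from which IC50 was calculated.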

Setting [1] is: Protein Kinase C, Human Recombinant, test substance 1 nM-10 µM, 37°C, 15 minutes, read-out: Inhibition of PKC activity IC50 PKC β II.
The mark [2] stands for this setting: Protein Kinase C, Human Recombinant, test substance 1 nM-10 µM, 37°C, 15 minutes, read-out: Inhibition of PKC activity IC50 PKC α.
The mark [3] stands for this setting: read-out: Inhibition of PKC activity IC50 PKC β II, Protein Kinase C, Human Recombinant, test substance 1 nM-10 µM, 37°C, 15 minutes.
Setting [4] is: read-out: Inhibition of PKC activity IC50 PKC α, Protein Kinase C, Human Recombinant, test substance 1 nM-10 µM, 37°C, 15 minutes.

Like-named read-outs stand apart in the source and are kept apart here.

T1 sequence (P05771 other isoform, or with tags, fused parts or gaps): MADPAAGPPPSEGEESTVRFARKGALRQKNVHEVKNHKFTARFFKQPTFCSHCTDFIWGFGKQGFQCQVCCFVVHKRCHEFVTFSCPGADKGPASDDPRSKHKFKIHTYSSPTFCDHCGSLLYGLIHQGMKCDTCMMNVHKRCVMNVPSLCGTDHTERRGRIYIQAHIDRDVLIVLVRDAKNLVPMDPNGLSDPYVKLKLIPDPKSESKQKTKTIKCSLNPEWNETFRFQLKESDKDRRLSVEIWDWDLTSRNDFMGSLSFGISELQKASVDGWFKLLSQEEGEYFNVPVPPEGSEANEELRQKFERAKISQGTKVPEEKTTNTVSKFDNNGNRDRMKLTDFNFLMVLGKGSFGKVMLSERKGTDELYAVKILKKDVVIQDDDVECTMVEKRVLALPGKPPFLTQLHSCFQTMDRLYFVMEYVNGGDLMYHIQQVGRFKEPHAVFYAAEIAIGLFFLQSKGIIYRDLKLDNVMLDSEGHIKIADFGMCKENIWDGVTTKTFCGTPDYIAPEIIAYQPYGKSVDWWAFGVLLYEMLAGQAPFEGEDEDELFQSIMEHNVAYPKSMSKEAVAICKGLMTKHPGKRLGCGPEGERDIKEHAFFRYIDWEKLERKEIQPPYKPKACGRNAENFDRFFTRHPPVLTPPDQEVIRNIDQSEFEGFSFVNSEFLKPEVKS

Consider `Cc1cncn1CCCn1cc(C2=C(Nc3cccc(Cl)c3)C(=O)NC2=O)c2ccccc21` [Example 2-59, 3-[(3-chlorophenyl)amino]-4-[1-{3-(5-methyl-imidazol-1-yl)propyl}-1H-indol-3-yl]-1H-pyrrole-2,5-dione], for which, at PKC β II, the “Ratio α/β” value is recorded as 45. The IC50 – broadly, the midpoint of a concentration-inhibition curve – at PKC β II (setting [1]) came out at 0.008 µM; at PKC α (setting [2]) it was 0.356 µM.
The like results for `Cc1nccn1CCCn1cc(C2=C(Nc3ccccc3)C(=O)NC2=O)c2ccccc21` [Example 2-61, 3-[1-{3-(2-methylimidazol-1-yl)propyl}-1H-indol-3-yl]-4-(phenylamino)-1H-pyrrole-2,5-dione] were, in that order, 45, 0.009 µM and 0.401 µM.
The like results for `O=C1NC(=O)C(c2cn(CCn3ccnc3)c3ccccc23)=C1Nc1ccccc1` [Example 2-62, 3-[1-(2-imidazol-1-ylethyl)-1H-indol-3-yl]-4-(phenylamino)-1H-pyrrole-2,5-dione] were, in that order, 55, 0.081 µM and 4.43 µM.
For the compound `Cc1nccn1CCn1cc(C2=C(Nc3ccccc3)C(=O)NC2=O)c2ccccc21` [Example 2-63, 3-[1-{2-(2-methyl-imidazol-1-yl)ethyl}-1H-indol-3-yl]-4-(phenylamino)-1H-pyrrole-2,5-dione], the “Ratio α/β” value on PKC β II amounted to 29. Besides, the results for the IC50 at PKC β II (setting [1]) and at PKC α (setting [2]) were 0.247 µM and 7.12 µM, respectively.
On to `O=C1NC(=O)C(c2cn(CCCn3ccnc3)c3ccccc23)=C1Nc1ccc(Cl)cc1` [Example 2-64, 3-[(4-chlorophenyl)amino]-4-[1-(3-imidazol-1-ylpropyl)-1H-indol-3-yl]-1H-pyrrole-2,5-dione], for which, on PKC β II, the “Ratio α/β” value was found to be 37. For the same compound, the IC50 at PKC β II (setting [1]) is 0.02 µM; on PKC α (setting [2]), 0.739 µM.
`COc1ccc(NC2=C(c3cn(CCCn4ccnc4)c4ccccc34)C(=O)NC2=O)cc1` [Example 2-65, 3-[1-(3-imidazol-1-ylpropyl)-1H-indol-3-yl]-4-[(4-metholyphenyl)amino]-1H-pyrrole-2,5-dione]: the “Ratio α/β” value at PKC β II was 47. Further, the values for the IC50 at PKC β II (setting [1]) and at PKC α (setting [2]) were 0.01 µM and 0.473 µM, respectively.
With `O=C1NC(=O)C(c2cn(CCCn3ccnc3)c3ccccc23)=C1Nc1ccc(Br)cc1` [Example 2-66, 3-[(4-bromophenyl)amino]-4-[1-(3-imidazol-1-ylpropyl)-1H-indol-3-yl]-1H-pyrrole-2,5-dione], the “Ratio α/β” value on PKC β II turned out to be 34. Also, the IC50 at PKC β II (setting [1]) is 0.027 µM; at PKC α (setting [2]) it was 0.908 µM.
In the case of `O=C1NC(=O)C(c2cn(CCCn3ccnc3)c3ccccc23)=C1Nc1ccc(F)cc1` [Example 2-68, 3-[(4-fluorophenyl)amino]-4-[1-(3-imidazol-1-ylpropyl)-1H-indol-3-yl]-1H-pyrrole-2,5-dione], the “Ratio α/β” value at PKC β II was 53. Also, the IC50 on PKC β II (setting [1]) is 0.006 µM; on PKC α (setting [2]), 0.315 µM.
With `Cc1c(C2=C(Nc3ccccc3)C(=O)NC2=O)c2ccccc2n1CCCn1ccnc1` [Example 2-69, 3-[1-(3-imidazol-1-ylpropyl)-2-methyl-1H-indol-3-yl]-4-(phenylamino)-1H-pyrrole-2,5-dione], on PKC β II, the “Ratio α/β” value came out at 117. The IC50 turned out to be 0.02 µM at PKC β II (setting [1]) and 2.35 µM on PKC α (setting [2]).
The like results for `O=C1NC(=O)C(c2cn(CC3CCCNC3)c3ccccc23)=C1Nc1ccccc1` (centres unmarked) [Example 3-1, 3-(phenylamino)-4-[1-(3-piperidylmethyl)-1H-indol-3-yl]-1H-pyrrole-2,5-dione] were, in that order, 27, 0.018 µM and 0.484 µM.
As for `O=C1NC(=O)C(c2cn(CC3CCNCC3)c3ccccc23)=C1Nc1ccccc1` [Example 3-2, 3-(phenylamino)-4-[1-(4-piperidylmethyl)-1H-indol-3-yl]-1H-pyrrole-2,5-dione], the “Ratio α/β” value on PKC β II worked out at 19. In addition, the results for the IC50 at PKC β II (setting [1]) and on PKC α (setting [2]) were 0.016 µM and 0.298 µM, respectively.
The like results for `CN1CCCC(Cn2cc(C3=C(Nc4ccccc4)C(=O)NC3=O)c3ccccc32)C1` (centres unmarked) [Example 3-3, 3-[1-{(1-methylpiperidin-3-yl)methyl}-1H-indol-3-yl]-4-(phenylamino)-1H-pyrrole-2,5-dione] were, in that order, 47, 0.057 µM and 2.65 µM.
As to `CN1CCC(Cn2cc(C3=C(Nc4ccccc4)C(=O)NC3=O)c3ccccc32)CC1` [Example 3-4, 3-[1-{(1-methylpiperidin-4-yl)methyl}-1H-indol-3-yl]-4-(phenylamino)-1H-pyrrole-2,5-dione], the “Ratio α/β” value on PKC β II was determined as 29. Besides, the IC50 was 0.018 µM on PKC β II (setting [1]) and 0.518 µM on PKC α (setting [2]).
As for `O=C1NC(=O)C(c2cn(CC3CCN(CC(O)CO)CC3)c3ccccc23)=C1Nc1ccccc1` (centres unmarked) [Example 3-5, 3-[1-{[1-(2,3-dihydroxypropyl)piperidin-4-yl]methyl}-1H-indol-3-yl]-4-(phenylamino)-1H-pyrrole-2,5-dione], the “Ratio α/β” value on PKC β II was determined as 56. Further, the IC50 was found to be 0.029 µM at PKC β II (setting [1]) and 1.63 µM on PKC α (setting [2]).
As to `NC(=O)N1CCC(Cn2cc(C3=C(Nc4ccccc4)C(=O)NC3=O)c3ccccc32)CC1` [Example 3-6, 3-[1-{(1-carbamoylpiperidin-4-yl)methyl}-1H-indol-3-yl]-4-(phenylamino)-1H-pyrrole-2,5-dione], the “Ratio α/β” value at PKC β II was 34. In addition, the IC50 at PKC β II (setting [1]) worked out at 0.108 µM; on PKC α (setting [2]) it was 3.66 µM.
On to `Cl.N=C(N)N1CCC(Cn2cc(C3=C(Nc4ccccc4)C(=O)NC3=O)c3ccccc32)CC1` [Example 3-7, 3-[1-{(1-amidinopiperidin-4-yl)methyl}-1H-indol-3-yl]-4-(phenylamino)-1H-pyrrole-2,5-dione hydrochloride], for which the “Ratio α/β” value at PKC β II was 46. Also, the IC50 on PKC β II (setting [1]) was found to be 0.056 µM; on PKC α (setting [2]), 2.56 µM.
With `O=C1NC(=O)C(c2c3n(c4ccccc24)CCC(CO)C3)=C1Nc1ccccc1` (centres unmarked) [Example 4-1, 3-[8-hydroxymethyl-6,7,8,9-tetrahydropyrido[1,2-a]indol-10-yl]-4-(phenylamino)-1H-pyrrole-2,5-dione], the “Ratio α/β” value on PKC β II was 61. The figures for the IC50 on PKC β II (setting [1]) and on PKC α (setting [2]) were 0.014 µM and 0.852 µM, respectively.
Turning to `CN(C)CC1CCn2c(c(C3=C(Nc4ccccc4)C(=O)NC3=O)c3ccccc32)C1` (centres unmarked) [Example 4-2, 3-[8-(dimethylaminomethyl)-6,7,8,9-tetrahydropyrido[1,2-a]indol-10-yl]-4-(phenylamino)-1H-pyrrole-2,5-dione], the “Ratio α/β” value on PKC β II worked out at 51. Also, the IC50 worked out at 0.005 µM at PKC β II (setting [1]) and 0.257 µM on PKC α (setting [2]).
Turning to `O=C1NC(=O)C(c2c3n(c4ccccc24)CCC(Cn2ccnc2)C3)=C1Nc1ccccc1` (centres unmarked) [Example 4-3, 3-[8-(1-imidazolylmethyl)-6,7,8,9-tetrahydropyrido[1,2-a]indol-10-yl]-4-(phenylamino)-1H-pyrrole-2,5-dione], the IC50 on PKC β II amounted to 0.016 µM; on PKC α it was 1.63 µM.
Regarding `CCN(C)C[C@H]1CCn2c(c(C3=C(Nc4ccccc4)C(=O)NC3=O)c3ccccc32)C1` [Example 4-24], at PKC β II, the “Ratio α/β” value stood at 68. Further, the IC50 on PKC β II (setting [3]) was determined as 0.003 µM; at PKC α (setting [4]), 0.204 µM.
The like results for `O=C1NC(=O)C(c2c3n(c4ccccc24)CC[C@H](CN2CCOCC2)C3)=C1Nc1ccccc1` [Example 4-26] were, in that order, 85, 0.009 µM and 0.768 µM.

The record behind these values is patent EP1120414A1, “DISUBSTITUTED MALEIMIDE COMPOUNDS AND MEDICINAL UTILIZATION THEREOF” (Japan Tobacco Inc., priority 1998, dated 2000).
